These molecules were tested against T1, hSOS1 enzyme / KRAS (G12C), GST-Tag, GDP-bound protein (Homo sapiens, UniProt Q07889) (assay: SOS1-mediated KRAS guanine nucleotide exchange (GEF) assay, HTRF ("On Assay")). Conditions: 1 μM compound.
T1 sequence (Q07889 564-1049 limits assumed): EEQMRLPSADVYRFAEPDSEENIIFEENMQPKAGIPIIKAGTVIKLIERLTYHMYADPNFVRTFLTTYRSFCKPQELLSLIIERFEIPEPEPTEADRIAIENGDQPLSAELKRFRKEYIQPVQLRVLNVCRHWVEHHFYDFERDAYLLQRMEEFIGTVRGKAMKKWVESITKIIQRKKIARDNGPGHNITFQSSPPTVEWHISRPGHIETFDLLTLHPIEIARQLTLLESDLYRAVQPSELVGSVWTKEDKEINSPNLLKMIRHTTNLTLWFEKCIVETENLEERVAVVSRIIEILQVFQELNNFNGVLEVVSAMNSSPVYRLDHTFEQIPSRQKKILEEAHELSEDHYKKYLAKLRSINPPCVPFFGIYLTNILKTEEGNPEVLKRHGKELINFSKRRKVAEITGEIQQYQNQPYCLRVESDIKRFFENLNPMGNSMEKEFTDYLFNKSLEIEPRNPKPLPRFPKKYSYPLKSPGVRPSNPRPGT
Assay type: biochemical
Procedure, shortened: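 Compounds were preincubated 10 min at 25 °C with GDP-loaded GST-KRAS G12C and Tb-anti-GST (working solution 100 nM/2 nM) in HEPES pH 7, 5 mM MgCl2. hSOS1 plus DY-647P-labelled GTP (working solution 20 nM/200 nM) was then added for 10 min. HTRF was read at 665/615 nm with 320 nm excitation, and wells lacking SOS1 served as negative control.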

Row | Compound | inhibition at 1 µM
1 | C[C@@H](Nc1nc(Cl)nc2cnc(N3CCOCC3)cc12)c1cc(N)cc(C(F)(F)F)c1 [Example 19, (R)—N-(1-(3-amino-5-(trifluoromethyl)phenyl)ethyl)-2-chloro-6-morpholinopyrido[3,4-d]pyrimidin-4-amine] | ≥ 50%
2 | CNCCNc1nc(N[C@H](C)c2cc(N)cc(C(F)(F)F)c2)c2cc(N3CCCC3)ncc2n1 [Example 39, (R)—N4-(1-(3-amino-5-(trifluoromethyl)phenyl)ethyl)-N2-(2-(methylamino)ethyl)-6-(pyrrolidin-1-yl)pyrido[3,4-d]pyrimidine-2,4-diamine] | ≥ 50%
3 | CC(C)N1CCN(c2cc3c(N[C@H](C)c4cc(N)cc(C(F)(F)F)c4)nc(N(C)C)nc3cn2)CC1 [Example 50, (R)—N4-(1-(3-amino-5-(trifluoromethyl)phenyl)ethyl)-6-(4-isopropylpiperazin-1-yl)-N2,N2-dimethylpyrido[3,4-d]pyrimidine-2,4-diamine] | ≥ 50%
4 | C[C@@H](Nc1nc(N2CCC2)nc2cnc(N3CCN(C)CC3)cc12)c1cc(N)cc(C(F)(F)F)c1 [Example 46, (R)—N-(1-(3-amino-5-(trifluoromethyl)phenyl)ethyl)-2-(azetidin-1-yl)-6-(4-methylpiperazin-1-yl)pyrido[3,4-d]pyrimidin-4-amine] | ≥ 50%
5 | CCN1CCN(c2cnc3nc(Cl)nc(N[C@H](C)c4cc(N)cc(C(F)(F)F)c4)c3c2)CC1 [Example 80, (R)—N-(1-(3-amino-5-(trifluoromethyl)phenyl)ethyl)-2-chloro-6-(4-ethylpiperazin-1-yl)pyrido[2,3-d]pyrimidin-4-amine] | ≥ 50%
6 | C[C@@H](Nc1nc(N(C)C)nc2cnc(N3CCCC3)cc12)c1cc(N)cc(C(F)(F)F)c1 [Example 2, N4—(R)-(1-(3-amino-5-(trifluoromethyl)phenyl)ethyl)-N2,N2-dimethyl-6-(pyrrolidin-1-yl)pyrido[3,4-d]pyrimidine-2,4-diamine] | ≥ 50%
7 | C[C@@H](Nc1nc(N2CCC2)nc2cnc(C3CCOCC3)cc12)c1cc(N)cc(C(F)(F)F)c1 [Example 67, (R)—N-(1-(3-amino-5-(trifluoromethyl)phenyl)ethyl)-2-(azetidin-1-yl)-6-(tetrahydro-2H-pyran-4-yl)pyrido[3,4-d]pyrimidin-4-amine] | ≥ 50%
8 | C[C@@H](Nc1nc(NCCO)nc2cnc(N3CCCC3)cc12)c1cc(N)cc(C(F)(F)F)c1 [Example 12, (R)-2-((4-((1-(3-amino-5-(trifluoromethyl)phenyl)ethyl)amino)-6-(pyrrolidin-1-yl)pyrido[3,4-d]pyrimidin-2-yl)amino)ethan-1-ol] | ≥ 50%
9 | C[C@@H](Nc1nc(Cl)nc2cnc(N3CCC(O)CC3)cc12)c1cc(N)cc(C(F)(F)F)c1 [Example 29, (R)-1-(4-((1-(3-amino-5-(trifluoromethyl)phenyl)ethyl)amino)-2-chloropyrido[3,4-d]pyrimidin-6-yl)piperidin-4-ol] | ≥ 50%
10 | C[C@@H](Nc1nc(NC(=O)CN)nc2cnc(N3CCCC3)cc12)c1cc(N)cc(C(F)(F)F)c1 [Example 77, (R)-2-amino-N-(4-((1-(3-amino-5-(trifluoromethyl)phenyl)ethyl)amino)-6-(pyrrolidin-1-yl)pyrido[3,4-d]pyrimidin-2-yl)acetamide hydro chloride] | ≥ 50%
11 | CC(C)Nc1cc2c(N[C@H](C)c3cc(N)cc(C(F)(F)F)c3)nc(N3CCCC3)nc2cn1 [Example 55, (R)—N4-(1-(3-amino-5-(trifluoromethyl)phenyl)ethyl)-N6-isopropyl-2-(pyrrolidin-1-yl)pyrido[3,4-d]pyrimidine-4,6-diamine] | ≥ 50%
12 | C[C@@H](Nc1nc(Cl)nc2cnc(N3CCOCC3)cc12)c1cccc(C(F)F)c1F [Example 59, (R)-2-chloro-N-(1-(3-(difluoromethyl)-2-fluorophenyl)ethyl)-6-morpholinopyrido[3,4-d]pyrimidin-4-amine] | ≥ 50%
13 | C[C@@H](Nc1nc(N2CCC2)nc2cnc(N(C)C)cc12)c1cc(N)cc(C(F)(F)F)c1 [Example 53, (R)—N4-(1-(3-amino-5-(trifluoromethyl)phenyl)ethyl)-2-(azetidin-1-yl)-N6,N6-dimethylpyrido[3,4-d]pyrimidine-4,6-diamine] | ≥ 50%

From patent publication US20240425501A1, “NOVEL BICYCLIC HETEROARYL DERIVATIVES AS SOS1:KRAS PROTEINPROTEIN INTERACTION INHIBITORS” (SATYARX PHARMA INNOVATIONS PVT LTD, priority 2021, published 2024)
